Experimental data as given in article PMC2896895 (Cell cycle (Georgetown, Tex.), 2009).

Key:
PSA levels = settings: Phase I clinical trial, castration resistant PCa; cited from earlier work
AR LBD = settings: non-competitive antagonists; cited from earlier work
LNCaP cells = experiment: Colony formation assay, LNCaP; type: cell-based, human
[1] = tested on: Prostate Specific Antigen (PSA) expression in C4-2 cells; experiment: PSA secretion by C4-2 cells; type: cell-based, human; settings: 10μM of compounds, 72h, PSA in medium vs 0.1% DMSO
C4-2 cells = experiment: Colony formation assay, C4-2; type: cell-based, human
CWR22R cells = experiment: Colony formation / growth assay, CWR22R; type: cell-based, human
[2] = tested on: AR-dependent luciferase reporter (ARE-Luc) in CWR22R cells; experiment: AR-dependent luciferase reporter; type: cell-based, human; settings: 10μM of compounds, 24h, vs 0.1% DMSO
[3] = number of colonies, vs 0.1% DMSO

For CNC(=O)c1ccc(N2C(=S)N(c3ccc(C#N)c(C(F)(F)F)c3)C(=O)C2(C)C)cc1F [MDV3100], the “PSA levels in patients” value (PSA levels) is given as “efficacy in decreasing PSA levels”.

In the case of CNC(=O)c1ccc(N2C(=S)N(c3ccc(C#N)c(C(F)(F)F)c3)C(=O)C23CCC3)cc1F [RD162], the “binding to the AR LBD” value (AR LBD) is listed as “bind with high affinity”.

In the case of CC(O)(CS(=O)(=O)c1ccc(F)cc1)C(=O)Nc1ccc(C#N)c(C(F)(F)F)c1 (stereo not shown) [Bic, bicalutamide], the “growth of androgen-sensitive LNCaP cells” value (LNCaP cells; colony formation, 10μM) is reported as “suppressed growth”, the “Survival of cells in the presence of 10μM of a compound (DMSO=100%), LNCaP” value (LNCaP cells; [3]) is reported as 19% and the “PSA secretion in C4-2 cells” value [1] is reported as 0 % of DMSO. The “growth of androgen-independent C4-2 cells” value (C4-2 cells; colony formation, 10μM) was “did not suppress growth”, the “Survival of cells in the presence of 10μM of a compound (DMSO=100%), C4-2” value (C4-2 cells; [3]) was 91% and the “growth of androgen-independent CWR22R cells” value (CWR22R cells; colony formation, 10μM) was “did not suppress growth”. The “Survival of cells in the presence of 10μM of a compound (DMSO=100%), CWR22R” value (CWR22R cells; [3]) was 100% and the “Activity of ARE-Luc in CWR22R11 cells” value [2] was 43 % of DMSO.
